Where a SMILES comes first, the peptide text is derived from it.
Assays:
importin β (KPNB1) = target: T1, importin β (KPNB1) (Homo sapiens, UniProt Q14974); assay: Rango FRET detection of importin β-Rango dissociation; type: binding; details: DPR 10-mers added to importin β-bound Rango
T1 construct: pET30a 6His-S-Importin β(1-876); 6His (N); S-tag (N); made in house; host or cells: E. coli BL21(DE3)
Protocol: Full-length human importin β was expressed from pET30a-WT importin β (pKW485; [Chi et al., 1997]) at the Protein Expression Laboratory (PEL, National Cancer Institute, Frederick, MD). The transformed BL21DE3 cells were grown at 37°C in an 80L Bioflow 500 bioreactor (New Brunswick Scientific, Edison, NJ) until OD600nm = 0.6, cooled to 22°C and the expression was induced with 0.3 mM IPTG. After 12 hr induction, cells were harvested with the CARR continuous flow centrifuge and lysed in PBS with 10 mM imidazole and 5 mM TCEP with a 110EH Microfluidizer (Microfluidics, Westwood, MA) using 2 passes at 10,000 PSI under chilled conditions. The lysates were flash-frozen in liquid nitrogen and stored at −80°C. After thawing, the lysates were clarified and incubated with HIS-Select HF Nickel Affinity beads. The beads were washed with 10 mM imidazole/PBS and the protein eluted with 200 mM imidazole/PBS before dialysis in XB. The purified importin β was combined with a freshly thawed aliquot of Rango2-α1 (pK188) at 2.5:1 molar ratio ratio (12.5 µM importin β, 5 µM Rango) and supplemented with 3% glycerol. Measurement of Rango fluorescence emission in a spectrometer (see below) was used to verify the FRET-off state of the Rango/importin β mixture before freezing.
The expression of zz-RCC1 was induced at OD600nm = 0.4, followed by incubation at 22°C for 4 hr. The cells were washed with PBS, 10 mM Imidazole, 1 mM MgCl2, 5 mM TCEP, 0.2 mM AEBSF, pH 8.0, and lysed by ice-cold microfluidizer. The clarified lysates were used to isolate the zz-RCC1 proteins on HIS-Select HF Nickel Affinity beads, as described above. Proteins eluted with 0.2M imidazole/PBS were dialyzed in PBS before storage. The zz-RanQ69L (pKW1234; pK1097) was expressed from BL21DE3 cells at PEL in an 80L bioreactor, using conditions described for importin β above, except that expression was induced with 0.3 mM IPTG at 37°C for 3 hr, and lysis was performed in PBS with 10 mM Imidazole, 5 mM TCEP, 2 mM MgCl2, and 1 mM GTP. The lysates were clarified and bound to HIS-Select HF Nickel Affinity beads (Millipore Sigma). […]
FRET assays for DPR-induced dissociation of the importin β-Rango complex were performed using a mix of 5 µM Rango-2/α1 (pK188) and 12.5 µM importin β (pKW485) prepared as described above. […] Peak emissions were recorded at 480 nm (donor) and 535 nm (acceptor) in all samples, and background emission subtracted at the same wavelengths in the blank. The FRET signal was calculated as the ratio of background-subtracted acceptor/donor emissions. The signal detected in the untreated sample (20 nM Rango and 50 nM importin β-only, the lowest FRET), was then subtracted from the resulting values. […]

importin β = assay: Biochemical pulldown (GFP-Trap) for DPR-induced Rango-importin β dissociation; type: binding, human; details: increasing concentrations of DPRs
Protocol: GFP-Trap magnetic beads (Chromotek, Planegg-Martinsried, Germany) were washed and resuspended in TTBS. At the end of incubation, 8 µl bead suspension was added to each sample and mixed by rotation for 15 min. The supernatant was removed and beads washed 3 times with TTBS before boiling in 20 µl SDS-PAGE sample buffer with 2% β-mercaptoethanol. Samples were separated by SDS-PAGE and anti-GFP western blot performed as detailed below to detect Rango. After detecting the ECL signal, membranes were stained with Coomassie Brilliant R250 to detect importin β. Background-subtracted signals were determined by Image Lab 6.01 (BioRad) and the Rango ECL signal normalized to the importin β signal within each lane.
Supernatant and pellet fractions (for all 5 DPRs, and control/buffer only) were prepared as in the nuclear transport assays, by adding 100 µM 10mers to 2.5 mg/ml HEK lysate in 100 µL TRB. Supernatants were boiled in Laemmli (BioRad) for 5 min. Pellets were boiled for 15 min followed by sonication in order to fully disperse aggregates for SDS-PAGE. Equal volumes of supernatant and pellet fractions were run on 4–12% Bolt Bis-Tris Plus gels (ThermoFisher), transferred to nitrocellulose membrane using an iBlot2 dry blotting system (ThermoFisher). Protein loading was analyzed by BLOT-Faststain (G-biosciences, St. Louis, MO), according to the manufacterers’ instructions. For immunodetection, membranes were blocked with 5% non-fat milk in TBST and probed by sequential incubation with the primary antibodies as detailed in the table below. Detection was by HRP-conjugated secondary antibodies/chemiluminescence using an ImageQuant LAS 4000 system (GE, Chicago, IL). To permit sequential probing of membranes without stripping, signals were quenched by incubation with prewarmed 30% H20_2 for 20 min ([Sennepin et al., 2009]). Band intensities were measured by ImageQuant software. For pellet vs. supernatant fractions, all were expressed as percent untreated control. For blots in Figure 1E, samples were run on 4–20% SDS PAGE minigels (ThermoFisher) and blotted to PVDF membranes (Immun-Blot PVDF, Bio-Rad) using the Bio-Rad TransBlot Turbo apparatus, and probed as above. The chemiluminescence signal was captured with a Bio-Rad ChemiDoc XRS+ digital imaging system.

[1] = test system: passive nuclear influx of GFP; assay: Passive import assay, GFP, permeabilized HeLa; type: cell-based, human; details: preincubation 30–60 min, with energy and lysate; imaged 5 min
[2] = target: passive nuclear influx of 40 kD dextran; assay: Passive import assay, 40 kD dextran, permeabilized HeLa; type: cell-based, human; details: preincubation 30–60 min, with energy and lysate; imaged 5 min

T1 sequence (Q14974 whole entry): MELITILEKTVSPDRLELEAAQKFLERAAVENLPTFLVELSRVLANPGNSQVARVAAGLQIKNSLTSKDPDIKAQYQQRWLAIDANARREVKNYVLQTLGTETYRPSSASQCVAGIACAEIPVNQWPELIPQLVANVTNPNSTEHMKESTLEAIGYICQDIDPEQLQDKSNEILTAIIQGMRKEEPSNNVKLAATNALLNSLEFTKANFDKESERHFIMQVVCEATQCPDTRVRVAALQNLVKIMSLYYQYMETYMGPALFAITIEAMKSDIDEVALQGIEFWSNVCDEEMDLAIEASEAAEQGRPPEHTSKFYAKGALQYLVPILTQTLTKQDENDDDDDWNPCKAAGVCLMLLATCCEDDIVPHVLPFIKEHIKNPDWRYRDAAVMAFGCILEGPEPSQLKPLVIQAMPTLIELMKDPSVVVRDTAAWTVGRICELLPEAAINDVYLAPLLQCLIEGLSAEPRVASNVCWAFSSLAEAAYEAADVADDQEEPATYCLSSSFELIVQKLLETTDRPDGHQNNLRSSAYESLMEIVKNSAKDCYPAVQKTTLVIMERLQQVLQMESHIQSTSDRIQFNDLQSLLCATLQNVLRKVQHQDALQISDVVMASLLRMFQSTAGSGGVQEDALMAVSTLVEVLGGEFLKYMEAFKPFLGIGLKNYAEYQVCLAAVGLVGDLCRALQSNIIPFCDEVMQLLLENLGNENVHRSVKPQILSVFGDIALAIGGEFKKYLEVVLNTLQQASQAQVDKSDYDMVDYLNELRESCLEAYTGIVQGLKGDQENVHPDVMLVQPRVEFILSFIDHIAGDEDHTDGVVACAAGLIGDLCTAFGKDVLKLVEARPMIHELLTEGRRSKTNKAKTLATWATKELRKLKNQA

| Effect on Rango FRET (importin β (KPNB1)) | Displacement of importin β from Rango (GFP nanobody bead co-immunoprecipitation) (importin β) | Effect on passive nuclear influx of 40-kD dextran [2] | Compound | Effect on passive nuclear influx of GFP [1] |
| --- | --- | --- | --- | --- |
| did not affect Rango FRET | little if any effect | not observed | GA10: Synthetic 10-mer GA dipeptide repeat with C-terminal lysine and cysteine (GAGAGAGAGAGAGAGAGAGAKC) | not observed |
| did not affect Rango FRET | little if any effect | not observed | GPGPGPGPGPGPGPGPGPGPKC [GP10, Synthetic 10-mer GP dipeptide repeat with C-terminal lysine and cysteine] | not observed |
| did not affect Rango FRET | little if any effect | not observed | PA10: Synthetic 10-mer PA dipeptide repeat with C-terminal lysine and cysteine (PAPAPAPAPAPAPAPAPAPAKC) | not observed |

| Compound | Effect on Rango FRET (importin β (KPNB1)) | Displacement of importin β from Rango (GFP nanobody bead co-immunoprecipitation) (importin β) | Effect on passive nuclear influx of 40-kD dextran [2] | Effect on passive nuclear influx of GFP [1] |
| --- | --- | --- | --- | --- |
| N=C(N)NCCC[C@H](NC(=O)[C@@H]1CCCN1C(=O)[C@H](CCCNC(=N)N)NC(=O)[C@@H]1CCCN1C(=O)[C@H](CCCNC(=N)N)NC(=O)[C@@H]1CCCN1C(=O)[C@H](CCCNC(=N)N)NC(=O)[C@@H]1CCCN1C(=O)[C@H](CCCNC(=N)N)NC(=O)[C@@H]1CCCN1C(=O)[C@H](CCCNC(=N)N)NC(=O)[C@@H]1CCCN1C(=O)[C@H](CCCNC(=N)N)NC(=O)[C@@H]1CCCN1C(=O)[C@H](CCCNC(=N)N)NC(=O)[C@@H]1CCCN1C(=O)[C@H](CCCNC(=N)N)NC(=O)[C@@H]1CCCN1C(=O)[C@H](CCCNC(=N)N)NC(=O)[C@@H]1CCCN1)C(=O)O [PR10] (H-PRPRPRPRPRPRPRPRPRPR-OH; N-terminus and C-terminus assumed) | dose-dependent increase in FRET | dose-dependent displacement of importin β from the sensor |  |  |

Source: article PMC7051184, “C9orf72 arginine-rich dipeptide repeat proteins disrupt karyopherin-mediated nuclear import” (eLife, 2020)
